These are literature values, as cited in patent US20020076434A1, “Liposomal retinoid therapy in hormone refractory prostate cancer” (Aronex Pharmaceuticals, Inc., priority 2000, published 2002).

Series [1] relates to HRPC.
Series [2] concerns HRPC. The settings on record: Kelly: 50 mg/m^2 every 8 hours for 8 weeks, 14 patients; Trump: days 1-14 every 22 days, 17 patients.
The mark [3] stands for this setting: one patient achieving CR, baseline PSA 25.0 ng/mL.

Take `CC1=C(/C=C/C(C)=C/C=C/C(C)=C/C(=O)O)C(C)(C)CCC1` [oral ATRA, all trans retinoic acid]: in the series on HRPC [1] (26 HRPC patients, oral 45 mg/m^2 daily for 7 days, 7 days off, resumed Day 14), the “Number of biological responses” value is recorded as 4. In addition, in the series with HRPC [1] (setting [3]), the Maximum response duration is 3 month and the “Time serum PSA remained within normal limits after the last dose” value is 8 weeks. Besides, the Tumor response entry with HRPC [2] is “little tumor response”.
